Paper PMC5137965 (Future Science OA, 2016)

What was measured:
[1] = Stock and working solution stability; type: physicochemical; details: for Short-term stability, %Stability: 8.46 h at room temperature; for Stock solution stability, %Stability: 21 days, stock solutions in methanol stored at refrigerator temperature 1–10°C; for working solutions found stable for: room temperature
Description: Separate stock solutions were used to prepare calibration curve (CC) standards and quality (QC) control samples. The prepared stock solutions were protected from light and stored in refrigerator between 1–10°C until use. A fresh working solution of IS (1500.00 ng/ml) was prepared everyday by taking appropriate dilution of the stock solution in methanol:water (50:50 v/v).
Stock solution stability of both analyte and internal standard was carried out for 21 days at refrigerated temperature (1–10°C). Short-term stability both analyte and internal standard was carried out for 8.46 h at room temperature.

[2] = Blood stability (sample collection process stability) at room temperature; type: in vitro ADME, human; details: 2.45 h at room temperature
[3] = Stability of spiked human plasma QC samples (bench top, freeze-thaw, autosampler, long-term); type: in vitro ADME; details: for Auto sampler stability (100.87 h), %Nominal, stability QC samples: processed samples
[4] = cited from earlier work
[5] = human plasma, low concentration QC

SMILES | Short-term stability, %Stability [1] [%] | Stock solution stability, %Stability [1] [%] | working solutions found stable for [1] [h] | %Stability ([2]; HQC) [%] | %Stability ([2]; LQC) [%] | processed samples stable in auto sampler for ([3]; at 10°C) [h] | Bench top stability during extraction (9.60 h), %Nominal, stability QC samples ([3]; high concentration QC) [%] | bench top stability in matrix ([3]; human plasma, 6.15 h) [%] | comparative freeze-thaw stability at the end of third freeze and thaw cycle ([3]; human plasma, below -15°C and below -50°C) [%] | Freeze thaw stability (three freeze thaw cycles, below -50°C), %Nominal, stability QC samples ([3]; human plasma, high concentration QC) [%] | Bench top stability in matrix (6.15 h), %Nominal, stability QC samples [3, 5] [%] | Freeze thaw stability (three freeze thaw cycles, below -15°C), %Nominal, stability QC samples [3, 5] [%] | Freeze thaw stability (three freeze thaw cycles, below -50°C), %Nominal, stability QC samples [3, 5] [%] | Bench top stability during extraction (9.60 h), %Nominal, stability QC samples ([3]; low concentration QC) [%] | Auto sampler stability (100.87 h), %Nominal, stability QC samples ([3]; high concentration QC) [%] | Auto sampler stability (100.87 h), %Nominal, stability QC samples ([3]; low concentration QC) [%] | stock solution found stable for ([1]; stored in refrigerator between 1 and 10°C) [days] | permeability ([4]; inferred from almost complete oral absorption) | Tmax ([4]; oral) [h]
[2H]c1c([2H])c(C(=O)Nc2ccc(C)c(Nc3nccc(-c4cccnc4)n3)c2)c([2H])c([2H])c1CN1CCN(C)CC1 [imatinib-D4] | 100.96 | 99.15 | 16 | – | – | – | – | – | – | – | – | – | – | – | – | – | – | – | –
Cc1ccc(NC(=O)c2ccc(CN3CCN(C)CC3)cc2)cc1Nc1nccc(-c2cccnc2)n1 [imatinib] | 101.88 | 101.63 | 16 | 99.27 | 100.72 | 100.87 | 98.96 | 97.75 to 100.23 | 97.45 to 101.41 | 102.3 | 96.03 | 97.16 | 97.03 | 94.80 | 102.61 | 98.34 | 21 | high permeability | 2 to 4
